Source: patent US20120010206A1, “IMIDAZOLOPYRIDINE COMPOUNDS USEFUL FOR THE TREATMENT OF DEGENERATIVE AND INFLAMMATORY DISEASES” (priority 2006, published 2012)

Legend:
TAK1-TAB1 fusion protein = target: T1, TAK1-TAB1 fusion protein (Homo sapiens, UniProt O43318); test: In vitro TAK1 kinase assay (33P-ATP, casein substrate); assay type: biochemical; conditions: semi-quantitative score, at least two independent experiments
T1 construct: purchased Upstate 14-600
T1 sequence (O43318 with tags, fused parts or gaps limits assumed): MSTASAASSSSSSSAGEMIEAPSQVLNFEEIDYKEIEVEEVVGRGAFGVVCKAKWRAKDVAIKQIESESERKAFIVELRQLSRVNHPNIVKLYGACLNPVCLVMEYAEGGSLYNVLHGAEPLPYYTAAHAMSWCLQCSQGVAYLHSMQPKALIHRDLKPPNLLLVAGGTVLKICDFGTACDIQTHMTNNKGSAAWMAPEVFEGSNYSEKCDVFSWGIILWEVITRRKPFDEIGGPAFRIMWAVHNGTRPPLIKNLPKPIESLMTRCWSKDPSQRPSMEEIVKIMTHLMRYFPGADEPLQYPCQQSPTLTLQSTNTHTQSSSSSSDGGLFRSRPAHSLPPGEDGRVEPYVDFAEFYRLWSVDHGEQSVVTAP
How it was run: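 Radiometric assay with active TAK1-TAB1 fusion protein (0.5 mU), 0.1 mg/mL casein, ATP at 5 µM plus [33P]-γ-ATP, in 10 mM MOPS pH 7.0, 1 mM EDTA. Reactions ran 90 min at 30 °C, were stopped with phosphoric acid and filter-counted; percent inhibition from ≥2 experiments gave semi-quantitative potency scores.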

[1] = system: MMP1 expression from activated SFs (RASF); test: MMP assay: MMP1 expression (ELISA) by TNF-α-triggered RASFs; assay type: cell-based; conditions: RASF triggered with TNFα, MMP1 ELISA after 48 hrs, semi-quantitative score
Experimental: A 384-well format ELISA for measurement of MMP1 is developed. Various primary antibodies are tested, as well as various ELISA protocols. The following protocol is developed and validated to measure MMP1 levels in SF supernatant in 384 well plates: white Lumitrac 600 384 well plates (Greiner) are coated with 2 μg/mL anti-MMP1 antibody MAB1346 (Chemicon). The antibody is diluted in buffer 40 (1.21 g Tris base (Sigma), 0.58 g NaCl (Calbiochem) and 5 mL 10% NaN3 (Sigma) in 1 L milliQ water and adjusted to pH 8.5). After overnight incubation at 4° C., plates are washed with PBS (80 g NaCl, 2 g KCl (Sigma), 11.5 g Na2HPO4.7H2O and 2 g KH2PO4 in 10 L milliQ; pH 7.4) and blocked with 100 μL/well Casein buffer (2% Casein (VWR International) in PBS). Next day, casein buffer is removed from ELISA plates and replaced by 50 μL/well EC buffer (4 g casein, 2.13 g Na2HPO4 (Sigma), 2 g bovine albumin (Sigma), 0.69 g NaH2PO4.H2O (Sigma), 0.5 g CHAPS (Roche), 23.3 g NaCl, 4 mL 0.5 M EDTA pH 8 (Invitrogen), 5 mL 10% NaN3 in 1 L milliQ and adjusted to pH 7.0). 0.25 mM DTT (Sigma) is added to the thawed sample plates. After removal of the EC buffer, 20 μL of sample is transferred to the ELISA plates. After overnight incubation at 4° C. plates are washed twice with PBS and once with PBST (PBS with 0.05% Tween-20 (Sigma)) and incubated with 35 μL/well biotinylated anti-MMP1 antibody solution (R&D). This secondary antibody is diluted in buffer C (0.82 g NaH2PO4.H2O, 4.82 g Na2HPO4, 46.6 g NaCl, 20 g bovine albumin and 4 ml, 0.5M EDTA pH 8 in 2 L milliQ and adjusted to pH 7.0) at a concentration of 5 μg/mL. After 2 h of incubation at RT, plates are washed as described above and incubated with 50 μL/well streptavidin-HRP conjugate (Biosource). Streptavidin-HRP conjugate is diluted in buffer C at a concentration of 0.25 μg/mL. After 45 min, plates are washed as described above and incubated for 5 min with 50 μL/well BM Chem ELISA Substrate (Roche). Readout is performed on the Luminoscan Ascent Luminometer (Labsystems) with an integration time of 200 msec or with an Envision reader (Perkin Elmer).
SFs were acquired at passage 1 from a commercial supplier (Cell applications, Inc.). SFs are cultured in DMEM supplemented with 10% heat-inactivated FBS, 1× penicillin/streptomycin (Invitrogen) at 37° C., 10% CO2 until passage 6. Aliquots of the cells are frozen and cryopreserved in liquid nitrogen. Starting from a cryopreserved aliquot, cells are further expanded by sub-culturing cells at 1/3 ratio every week. Cells between passage 10 and 12 are routinely used in compound testing according to the following protocol.
Starting from the compound master stocks (all at 10 mM concentration in 100% DMSO) a 3-fold serial dilution is made in 96-well plates in 100% DMSO. Then, plates are further diluted 45-fold in M199 medium supplemented with 1% heat-inactivated FBS to obtain a intermediate work stock.
At day 1, RASFs are seeded in 96 well plates (flat bottom, tissue culture treated, Greiner) at a density of 3000 cells/well in complete synovial growth medium (Cell Applications). Day 5, the medium is completely removed from the cells, and replaced by 81 μL of M199 medium supplemented with 1% heat-inactivated FBS followed by addition of 10 μL compound out of the intermediate work stock. After an incubation period of 90 minutes, which allows the compounds to equilibrate and enter the cells, cells are stimulated with either TNF-α or ‘complex trigger’. TNF-α trigger is added in a volume of […] to obtain final concentration of 10 ng/mL. For that, TNF-α stock (PeproTech) at 10 μg/mL was diluted to 100 ng/mL TNF-α in M199 medium supplemented with 1% FBS. ‘Complex trigger’ mix is added in a volume of 20 μL to obtain a final concentration of 12.5%. For that, ‘complex trigger’ mix, is diluted to 80% with M199 medium supplemented with 1% FBS. […]

SMILES | IC50 (TAK1-TAB1 fusion protein) [nM] | EC50 [1] [nM]
Cc1n[nH]c(C)c1-c1ccc(Nc2ccc(N3CCOCC3)cc2)c2nccn12 [Compound 92] | > 3000 | > 3000
NC(=O)c1ccc(-c2ccc(Nc3ccc(N4CCOCC4)cc3)c3nccn23)cc1 [Compound 1, 4-[8-(4-Morpholin-4-yl-phenylamino)-imidazo[1,2-a]pyridin-5-yl]-benzamide] | 1000 to 3000 | 101 to 1000
Cc1cc(CNC(=O)c2ccc(Nc3ccc(-c4ccc5c(c4)CNC5=O)n4ccnc34)cc2)no1 [Compound 37, N-((5-methylisoxazol-3-yl)methyl)-4-(5-(1-oxoisoindolin-5-yl)imidazo[1,2-a]pyridin-8-ylamino)benzamide] | 1000 to 3000 | 1000 to 3000
CC(C)N1CCN(c2ccc(Nc3ccc(-c4ccc5c(c4)CNC5=O)n4ccnc34)cc2C(F)(F)F)CC1 [Compound 27, 5-(8-(4-(4-isopropylpiperazin-1-yl)-3-(trifluoromethyl)phenylamino)imi-dazo[1,2-a]pyridin-5-yl)isoindolin-1-one] | 101 to 1000 | > 3000
CN1CCN(c2ccc(Nc3ccc(-c4ccc(C(N)=O)cc4)n4ccnc34)cc2F)CC1 [Compound 63] | 101 to 1000 | > 3000
CC(C)CCN1CCN(c2ccc(Nc3ccc(-c4cc[nH]c(=O)c4)n4ccnc34)cc2)CC1 [Compound 86] | 101 to 1000 | 1000 to 3000
O=c1cc(-c2ccc(Nc3ccc(C4CCN(CCF)CC4)cc3)c3nccn23)cc[nH]1 [Compound 108, 4-(8-{4-[1-(2-Fluoro-ethyl)-piperidin-4-yl]-phenylamino}-imidazo[1,2-a]pyridin-5-yl)-1H-pyridin-2-one] | 101 to 1000 | 1000 to 3000
CN(C)S(=O)(=O)c1ccc(Nc2ccc(-c3ccc4c(c3)CNC4=O)n3ccnc23)cc1 [Compound 20, N,N-dimethyl-4-(5-(1-oxoisoindolin-5-yl)imidazo[1,2-a]pyridin-8-ylamino)benzene sulfonamide] | 101 to 1000 | 101 to 1000
NC(=O)c1ccc(-c2ccc(Nc3ccc(N4CCN(C5CCCCC5)CC4)cc3)c3nccn23)cc1 [Compound 77] | 101 to 1000 | 1000 to 3000
O=C1NCc2cc(-c3ccc(Nc4ccc(C(=O)N5CCOCC5)cc4)c4nccn34)ccc21 [Compound 15, 5-(8-(4-(morpholine-4-carbonyl)phenyl-amino)imidazo[1,2-a]pyridin-5-yl)isoindolin-1-one] | 101 to 1000 | > 3000
CN(C)c1ccc(CNS(=O)(=O)c2ccc(Nc3ccc(-c4ccc5c(c4)CNC5=O)n4ccnc34)cc2)cc1 [Compound 25, N-(4-(dimethylamino)benzyl)-4-(5-(1-oxoisoindolin-5-yl)imidazo[1,2-a]pyridin-8-ylamino)benzene sulfonamide] | 101 to 1000 | 1000 to 3000
CC(C)N1CCN(c2ccc(Nc3ccc(-c4cn[nH]c4)n4ccnc34)cc2F)CC1 [Compound 5, [3-Fluoro-4-(4-isopropyl-piperazin-1-yl)-phenyl]-[5-(1H-pyrazol-4-yl)-imidazo[1,2-a]pyridin-8-yl]-amine] | 101 to 1000 | 1000 to 3000
O=c1cc(-c2ccc(Nc3ccc(N4CCOCC4)c(F)c3)c3nccn23)cc[nH]1 [Compound 65] | 101 to 1000 | 101 to 1000
O=C(NCCCN1CCCC1)c1ccc(Nc2ccc(-c3ccc4c(c3)CNC4=O)n3ccnc23)cc1 [Compound 51, 4-(5-(1-oxoisoindolin-5-yl)imidazo[1,2-a]pyridin-8-ylamino)-N-(3-(pyrrolidin-1-yl)propyl)benzamide] | 101 to 1000 | > 3000
CCC(CC)N1CCN(c2ccc(Nc3ccc(-c4ccc(C(N)=O)cc4)n4ccnc34)cc2)CC1 [Compound 80] | 101 to 1000 | > 3000
CCOCCN1CCN(C(=O)c2ccc(Nc3ccc(-c4ccc5c(c4)CNC5=O)n4ccnc34)cc2)CC1 [Compound 40, 5-(8-(4-(4-(2-ethoxyethyl)piper-azine-1-carbonyl)phenyl-amino)imidazo[1,2-a]pyridin-5-yl)isoindolin-1-one] | 101 to 1000 | > 3000

Next, values leading:

IC50 (TAK1-TAB1 fusion protein) [nM] | EC50 [1] [nM] | SMILES
101 to 1000 | > 3000 | CC(C)N1CCN(c2ccc(Nc3ccc(-c4cccc5[nH]ccc45)n4ccnc34)cc2)CC1 [Compound 75]
< 100 | > 3000 | CCN1CCN(C(=O)c2ccc(Nc3ccc(-c4ccc5c(c4)CNC5=O)n4ccnc34)cc2)CC1 [Compound 53, 5-(8-(4-(4-ethylpiperazine-1-carbonyl)phenylamino)imidazo [1,2-a]pyridin-5-yl)isoindolin-1-one]
101 to 1000 | 101 to 1000 | CN1CCN(c2ccc(Nc3ccc(-c4cn[nH]c4)n4ccnc34)c(F)c2)CC1 [Compound 7, [2-Fluoro-4-(4-methyl-piperazin-1-yl)-phenyl]-[5-(1H-pyrazol-4-yl)-imidazo[1,2-a]pyridin-8-yl]amine]
101 to 1000 | > 3000 | CN1CCN(c2ccc(Nc3ccc(-c4cn[nH]c4)n4ccnc34)cc2)CC1 [Compound 4, [4-(4-Methyl-piperazin-1-yl)-phenyl]-[5-(1H-pyrazol-4-yl)-imidazo[1,2-a]pyridin-8-yl]-amine]
< 100 | > 3000 | CN(C)C1CCN(C(=O)c2ccc(Nc3ccc(-c4ccc5c(c4)CNC5=O)n4ccnc34)cc2)C1 (centres unmarked) [Compound 39, 5-(8-(4-(3-(dimethylamino)pyrrolidine-1-carbonyl)phenyl-amino)imidazo[1,2-a]pyridin-5-yl)isoindolin-1-one]
101 to 1000 | 1000 to 3000 | CCN1CCN(c2ccc(Nc3ccc(-c4ccc(C(N)=O)cc4)n4ccnc34)cc2)CC1 [Compound 81]
101 to 1000 | 101 to 1000 | O=c1cc(-c2ccc(Nc3ccc(N4CCN(C5CCC5)CC4)cc3)c3nccn23)cc[nH]1 [Compound 85]
101 to 1000 | 1000 to 3000 | CC1CN(c2ccc(Nc3ccc(-c4cc[nH]c(=O)c4)n4ccnc34)cc2)CC(C)N1 (centres unmarked) [Compound 124, 4-{8-[4-(3,5-Dimethyl-piperazin-1-yl)-phenylamino]-imidazo[1,2-a]pyridin-5-yl}-1H-pyridin-2-one]
< 100 | > 3000 | CCN1CCC[C@H]1CNC(=O)c1ccc(Nc2ccc(-c3ccc4c(c3)CNC4=O)n3ccnc23)cc1 [Compound 49, (S)-N-((1-ethylpyrrolidin-2-yl)methyl)-4-(5-(1-oxoisoindolin-5-yl)imidazo[1,2-a]pyridin-8-ylamino)benzamide]
